{"source": "patent US10470459B2", "about": "“Antimicrobial preparations, methods for preparing the same and uses thereof to combat microorganisms” (IPABC LTD, priority 2014, dated 2019)", "key": {"[1]": {"test": "Turbidity of diluted mixtures, OD at 570 nm", "format": "physicochemical", "details": "diluted from stock of 100000 ppm AG6210 and/or 25000 ppm ε-polylysine, analysed immediately", "text": "In general the experiments described in Examples 2 to 17 comprise two stages. First stage is the preparation of a concentrated solution of the surfactant(s) and crystal substrate in drinking water. This stage may involve the mixing of a pre-prepared stock solution(s) of the surfactant in drinking water and a pre-prepared stock solution of the substrate in drinking water. The exact procedure used is set out in each Example. The second stage is the dilution of aliquots of the stock solution with single aliquots of drinking water in glass vessels to result in diluted mixtures with varying (theoretical) concentrations of surfactant(s) and substrate as recited in the Tables of each Example. The diluted mixtures were incubated for the time and at the temperature recited in each Example before the amount of particulate matter in the mixture was assessed. This assessment was by spectrophotometer set to measure OD at a wavelength of 570 nm in Example 2 and, for Examples 3 to 17, by naked eye upon agitation of the vessel and illumination by electric light. […]\nTest mixtures (100 ml) were prepared by pipetting appropriate amounts of the concentrated solution into glass flasks and adjusting the volume to 100 ml with drinking water. Mixtures were analysed immediately by measuring OD at 570 nm. […]"}, "E. coli": {"system": "E. coli", "test": "Antimicrobial efficacy, CFU count after 30 min contact", "format": "cell-based", "details": "ε-polylysine 250 ppm, AG 6210 0", "protocol": "100 μl of an E. coli suspension (˜1.5×10^8 CFUs) was added to 900 μl of a freshly prepared dilute ε-polylysine/AG6210 mixture of the invention (prepared as described above) and incubated for 30 min at room temperature. Reaction was stopped by adding 9 ml of neutraliser. Mixture was then diluted 1:10 and 1:100 and 100 μl of the neat mixture and each dilution was applied to agar plates. Plates were incubated for 48 hrs at 37° C. and CFUs counted.\nThe antimicrobial efficacy of the following dilute ε-polylysine/AG6210 mixtures, prepared in accordance with the invention, was assessed as described above."}, "[2]": {"test": "Critical micelle concentration (CMC)", "format": "physicochemical", "details": "H2O, 20° C.; approx. conversion of the mM value", "text": "The term “critical micelle concentration” refers to the concentration of a surfactant in a polar solvent above which the surfactant molecules will spontaneously arrange as a micelle. In accordance with the invention, this value may be expressed in any convenient units of concentration, with the exception that when CMC values are undergoing comparison, the value is expressed as a molar concentration (i.e. in units of M, mM, μM, etc., as appropriate). In the present context a micelle is considered to be a colloid arrangement of surfactant molecules in a polar solvent in which the hydrophilic head groups are oriented towards the polar solvent in a substantially spherical shape and the hydrophobic tail groups are sequestered to the interior of the sphere. In the present context a reference to the CMC of a surfactant is a reference to the CMC of the surfactant in the conditions of the aqueous liquid composition of the invention (including physical conditions such as temperature), unless otherwise indicated. For convenience, this may be taken as the CMC of the surfactant in isolation in pure water at 20° C. CMC values may be calculated by any convenient means, preferably by one of the methods described in Mukerjee P., et. al, Critical Micelle Concentrations of Aqueous Surfactant Systems, United States Department of Commerce, Nat. Stnd. Ref. Data Ser., Nat. Bur. Stand., February 1971 (U.S.)."}, "[3]": {"details": "H2O, 20° C., cited from earlier work"}}, "note": "Where two headings read alike, the source gives them in different places."}
{"molecule": "ε-polylysine", "values": [{"measurement": "Turbidity upon dilution (OD at 570 nm)", "setting": "[1]", "value": "do not show turbidity"}, {"measurement": "CFUs in each dilution of E. coli culture", "setting": "E. coli; dilution 1:1", "value": 100, "unit": "CFUs"}, {"measurement": "CFUs in each dilution of E. coli culture", "setting": "E. coli; dilution 1:10", "value": 40, "unit": "CFUs"}, {"measurement": "CFUs in each dilution of E. coli culture", "setting": "E. coli; dilution 1:100", "value": 25, "unit": "CFUs"}]}
{"molecule": "CCCCCCCCO[C@@H]1O[C@H](CO)[C@@H](O)[C@H](O)[C@H]1O", "note": "[n-octyl-β-D-glucopyranoside]", "values": [{"measurement": "CMC", "setting": "[2]", "value": "~2800", "unit": "ppm"}]}
{"molecule": "CCCCCCCCCCO[C@@H]1O[C@H](CO)[C@@H](O[C@H]2O[C@H](CO)[C@@H](O)[C@H](O)[C@H]2O)[C@H](O)[C@H]1O", "note": "[n-decyl-β-D-maltopyranoside]", "values": [{"measurement": "CMC", "setting": "[3]", "value": "CMC (H2O, 20° C.) of n-decyl-β-D-maltopyranoside: 1.6 mM"}]}
{"molecule": "CCCCCCCCCC[N+](C)(C)CCCCCCCCCC.[Cl-]", "note": "[di-n-decyldimethyl ammonium chloride]", "values": [{"measurement": "CMC", "setting": "[3]", "value": 1.5, "unit": "mM"}]}
{"molecule": "CCCCCCCS[C@@H]1O[C@H](CO)[C@@H](O)[C@H](O)[C@H]1O", "note": "[n-heptyl-β-D-thioglucoside]", "values": [{"measurement": "CMC", "setting": "[3]", "value": "CMC (H2O, 20° C.) of n-heptyl-β-D-thioglucoside: 29 mM"}]}
{"molecule": "alkyl-dimethylbenzyl ammonium chloride", "values": [{"measurement": "CMC", "setting": "[3]", "value": 0.7, "unit": "mM"}]}
{"molecule": "CCCCCCCCC(=O)N(C)C[C@H](O)[C@@H](O)[C@H](O)[C@H](O)CO", "note": "[n-nonanoyl-N-methylglucamine]", "values": [{"measurement": "CMC", "setting": "[3]", "value": "CMC (H2O, 20° C.) of n-nonanoyl-N-methylglucamine: 19-25 mM"}, {"measurement": "CMC", "setting": "[3]; listed as N-nonanoyl-N-methylglucamine", "value": "CMC (H2O, 20° C.) of N-nonanoyl-N-methylglucamine: 19-25 mM"}]}
{"molecule": "CCCCCCCCO[C@@H]1O[C@H](CO)[C@@H](O[C@H]2O[C@H](CO)[C@@H](O)[C@H](O)[C@H]2O)[C@H](O)[C@H]1O", "note": "[n-octyl-β-D-maltopyranoside]", "values": [{"measurement": "CMC", "setting": "[3]", "value": "CMC (H2O, 20° C.) of n-octyl-β-D-maltopyranoside: 23 mM"}]}
